Experimental findings from patent publication US20090176841A1, “NOVEL 6-5 SYSTEM BICYCLIC HE[…] ITS PHAR[…]” (Sanwa Kagaku Kenkyusho Co., Ltd., priority 2006, published 2009) are described below.

One experiment concerns the target T1, recombinant human TRβ (Homo sapiens, UniProt P10828).
T1 sequence (P10828 244-461): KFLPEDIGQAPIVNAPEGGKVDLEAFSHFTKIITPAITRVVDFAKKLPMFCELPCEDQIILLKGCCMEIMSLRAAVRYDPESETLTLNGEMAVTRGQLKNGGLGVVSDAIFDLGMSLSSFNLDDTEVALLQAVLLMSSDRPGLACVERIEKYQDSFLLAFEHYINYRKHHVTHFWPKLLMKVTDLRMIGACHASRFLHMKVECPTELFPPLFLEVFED
Kind of experiment: biochemical. The note with it: TR[…] (IC50, nM), displacement of 125I-T3 (0.16 nM). From the text: (§1) Thyroid Hormone Receptor Binding Test
(§2) (1) Preparation of Fused Protein Having Ligand Binding Region of Thyroid Hormone Receptor
(§3) Human TRα and human TRβ ligand binding domains were expressed in Escherichia coli as a fused protein (recombinant human TRα or recombinant human TRβ) having TRα and TRβ ligand binding domains at a C-terminus of His-Patch Thioredoxin using the His-Patch Thioredoxin fusing protein expressing system (Invitrogen).
(§4) A nucleotide sequence of a region corresponding to the fused protein was confirmed by DNA sequence analysis.
(§5) Escherichia coli by which the fused protein had been subjected to expression inducement were collected by a centrifugation method, and ground using ultrasound to prepare a ground cell liquid containing the fused protein. The ground cell liquid was centrifuged at 15000 rpm for about 30 minutes, and a solution containing the fused protein from the supernatant using a nickel chelating column was obtained. An NAP-10 column was replaced with a binding solution (20 mM, Tris-HCl, 0.15 M NaCl, 8% Glycerol, 0.1% BSA, 1 mM EDTA, 10 mM 2-melcaptethanol). The resulting binding solution containing the fused protein was frozen and stored at −70° C. or lower.
(§6) (2) Binding Affinity for Thyroid Hormone Receptor
(§7) This binding solution (60 μL) was added to all wells of a 96-well plate (MILLIPORE MultiScreen-HV, Cat. No. MANVN4550, Lot. No. F4SN86613). […] 80 μL of SephadexG25 was added to each well of MultiScreen-HV (MILLIPORE, Cat. No. MANVN4550, Lot. No. F4SN86613), the binding solution was added to sufficiently swell, and this was centrifuged at 600×g for 1 minute to prepare a column of SephadexG25. […] Again, 25 μL untreated binding solution was overlaid on the SephadexG25 column, and this was immediately centrifuged at 600×g for 1 minute. […] As an amount of recombinant human TRα or recombinant human TRβ used in the present test, an amount by which proper radioactivity is obtained in a range where an addition amount of the receptor and an amount of the complex in the above test system, was used.
(§8) This was divided by the total complex amount to calculate a binding rate as the following equation:
(§9) Binding rate=remaining complex amount/total complex amount

For the next experiment, the target named is T2, recombinant human TRα (Homo sapiens, UniProt P10827).
T2 sequence (P10827 190-410 isoform P10827-2): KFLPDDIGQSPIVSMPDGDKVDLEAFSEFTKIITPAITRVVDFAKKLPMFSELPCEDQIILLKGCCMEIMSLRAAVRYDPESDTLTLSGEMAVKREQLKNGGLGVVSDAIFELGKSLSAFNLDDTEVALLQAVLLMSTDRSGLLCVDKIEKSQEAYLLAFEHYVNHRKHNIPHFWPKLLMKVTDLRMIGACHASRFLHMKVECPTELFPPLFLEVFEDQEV
The experiment in a line: biochemical. The conditions noted are these: TR[…] (IC50, nM), displacement of 125I-T3 (0.16 nM).
Source text: as §1, §2, §3, §4, §5, §6, §7, §8, §9
(In a radioligand displacement assay an active substance lowers the binding of a labelled ligand.)

Where only a bound is given, the exact number is not on record here.

The IC50 is the point on the concentration scale where inhibition reaches its midpoint. For the compound `Cc1ccc(NC(=O)CC(=O)O)c2cc(C)n(Cc3ccc(O)c(C(C)C)c3)c12` [Example 86], the figures for the IC50 at recombinant human TRβ and at recombinant human TRα were 16 nM and 670 nM, respectively.
On to `Cc1ccc(NC(=O)C(F)C(=O)O)c2cc(C)n(Cc3ccc(O)c(C(C)C)c3)c12` (stereo not shown) [Example 88], for which the IC50 was found to be 13 nM on recombinant human TRβ and 120 nM on recombinant human TRα.
On to `CCOc1cc(Cn2c(C)cc3c(NC(=O)C(=O)O)ccc(C)c32)ccc1O` [Example 126], for which the IC50 on recombinant human TRβ was 320 nM; on recombinant human TRα, 1900 nM.
`Cc1ccc(NC(=O)C(=O)O)c2cc(C)n(Cc3ccc(O)c(C(C)C)c3)c12` [Example 85]: the IC50 was 3.1 nM on recombinant human TRβ and 24 nM at recombinant human TRα.
The matching figures for `Cc1ccc(NC(=O)CC(=O)O)c2cc(C)n(Cc3ccc(O)c(Cc4ccc(F)cc4)c3)c12` [Example 100]: 28 nM and 600 nM.
With `Cc1ccc(NC(=O)C(=O)O)c2cc(C)n(Cc3ccc(O)c(C(F)(F)F)c3)c12` [Example 114], the IC50 on recombinant human TRβ was determined as 49 nM; at recombinant human TRα, 180 nM.
With `CCOC(=O)C(=O)Nc1ccc(C)c2c1ccn2Cc1ccc(O)c(C(C)C)c1` [Example 15], the IC50 was 60 nM at recombinant human TRβ and 490 nM at recombinant human TRα.
As to `Cc1ccc(NCCC(=O)O)c2ccn(Cc3ccc(O)c(C(C)C)c3)c12` [Example 82], the IC50 at recombinant human TRβ was determined as 1100 nM; on recombinant human TRα, 1600 nM.
Regarding `CC(C)c1cc(Cn2ncc3c(NC(=O)C(=O)O)cccc32)ccc1O` [Example 111], the IC50 at recombinant human TRβ is 1400 nM; at recombinant human TRα, above 10000 nM.
For `Cc1ccc(NC(=O)C(=O)O)c2cc(C)n(Cc3ccc(O)c(Cc4ccc(F)cc4)c3)c12` [Example 125], the IC50 at recombinant human TRβ was found to be 8.7 nM; on recombinant human TRα it was 66 nM.
The matching figures for `Cc1ccc(NC(=O)CC(=O)O)c2cc(C)n(Cc3ccc(O)c(Br)c3)c12` [Example 65]: 470 nM and above 10000 nM.
For `CCOC(=O)C(=O)Nc1cccc2c1ccn2Cc1ccc(O)c(C(C)C)c1` [Example 1, Ethyl N-[1-(4-hydroxy-3-isopropylbenzyl)-1H-indol-4-yl]oxamate] the same measures were 220 nM and 1500 nM.
As to `Cc1ccc(NC(=O)CCC(=O)O)c2cc(C)n(Cc3ccc(O)c(C(C)C)c3)c12` [Example 93], the IC50 was 260 nM on recombinant human TRβ and 650 nM on recombinant human TRα.
For `CCC(C)c1cc(Cn2c(C)cc3c(NC(=O)C(=O)O)ccc(C)c32)ccc1O` (stereo not shown) [Example 122], the IC50 on recombinant human TRβ is 2.6 nM; at recombinant human TRα, 24 nM.
With `Cc1ccc(NC(=O)C(=O)O)c2cc(C)n(Cc3ccc(O)c(CCc4ccccc4)c3)c12` [Example 101], the IC50 at recombinant human TRβ stood at 390 nM; at recombinant human TRα, 2200 nM.
`Cc1c(C)n(Cc2ccc(O)c(C(C)C)c2)c2cccc(NC(=O)C(=O)O)c12` [Example 83]: the figures for the IC50 on recombinant human TRβ and on recombinant human TRα were 27 nM and 85 nM, respectively.
On to `CC(C)c1cc(Cc2c[nH]c3c(NC(=O)CC(=O)O)cccc23)ccc1O` [Example 113], for which the results for the IC50 at recombinant human TRβ and at recombinant human TRα were 320 nM and above 10000 nM, respectively.
The matching figures for `Cc1ccc(NC(=O)CC(=O)O)c2cc(C)n(Cc3ccc(O)c(C(O)c4ccc(F)cc4)c3)c12` (single isomer, unassigned; (-)) [Example 131, (−)-N-(1-{3-[(4-fluorophenyl)hydroxymethyl]-4-hydroxybenzyl}-2,7-dimethyl-1H-indol-4-yl)malonamic acid]: 7.1 nM and 99 nM.
Consider `CCc1cc2c(NC(=O)CC(=O)O)cccc2n1Cc1ccc(O)c(C(C)C)c1` [Example 75], for which the IC50 was 550 nM on recombinant human TRβ and above 10000 nM at recombinant human TRα.
Take `CC(C)c1cc(Cn2ccc3c(NC(=O)C(=O)O)cc(Br)cc32)ccc1O` [Example 120]: the IC50 at recombinant human TRβ amounted to 63 nM; at recombinant human TRα it was 380 nM.
For `Cc1ccc(NC(=O)CC(=O)O)c2cc(C)n(Cc3ccc(O)c(C(O)c4ccc(F)cc4)c3)c12` (stereo not shown) [Example 129, N-(1-{3-[(4-fluorophenyl)hydroxymethyl]-4-hydroxybenzyl}-2,7-dimethyl-1H-indol-4-yl)malonamic acid] the same measures were 7.5 nM and 260 nM.
`Cc1cc(NC(=O)C(=O)O)cc2ccn(Cc3ccc(O)c(C(C)C)c3)c12` [Example 108]: the IC50 at recombinant human TRβ was 54 nM; on recombinant human TRα, 190 nM.
Regarding `CC(C)c1cc(Cn2ccc3c(NC(=O)CC(=O)O)ccc(Cl)c32)ccc1O` [Example 78], the IC50 at recombinant human TRβ is 36 nM; at recombinant human TRα, 230 nM.
Regarding `CC(C)c1cc(Cn2ccc3c(NC(=O)C(=O)O)cccc32)ccc1O` [Example 63, N-[1-(4-hydroxy-3-isopropylbenzyl)-1H-indol-4-yl]oxamic acid], the figures for the IC50 on recombinant human TRβ and on recombinant human TRα were 170 nM and 1200 nM, respectively.
Take `CCOC(=O)C(=O)Nc1cccc2c1c(C)c(C)n2Cc1ccc(O)c(C(C)C)c1` [Example 19]: the IC50 on recombinant human TRβ was 56 nM; on recombinant human TRα it was 280 nM.
Regarding `Cc1ccc(NC(=O)CC(=O)O)c2cc(C(F)(F)F)n(Cc3ccc(O)c(C(C)C)c3)c12` [Example 95], the results for the IC50 on recombinant human TRβ and at recombinant human TRα were 5 nM and 98 nM, respectively.
As to `CCOC(=O)C(=O)Nc1ccc(C)c2c1ccn2Cc1ccc(O)c(C(O)c2ccc(F)cc2)c1` (stereo not shown) [Example 56, Ethyl N-(1-{3-[(4-fluorophenyl)hydroxymethyl]-4-hydroxybenzyl}-7-methyl-1H-indol-4-yl)oxamate], the values for the IC50 at recombinant human TRβ and on recombinant human TRα were 84 nM and 480 nM, respectively.
With `Cc1ccc(NC(=O)CC(=O)O)c2cc(C)n(Cc3ccc(O)c(C(O)c4ccc(F)cc4)c3)c12` (single isomer, unassigned; (+)) [Example 130, (+)-N-(1-{3-[(4-fluorophenyl)hydroxymethyl]-4-hydroxybenzyl}-2,7-dimethyl-1H-indol-4-yl)malonamic acid], the results for the IC50 on recombinant human TRβ and on recombinant human TRα were 150 nM and 5200 nM, respectively.
On to `Cc1ccc(NC(=O)Cc2nnn[nH]2)c2ccn(Cc3ccc(O)c(C(C)C)c3)c12` [Example 42], for which the IC50 worked out at 150 nM at recombinant human TRβ and 8200 nM at recombinant human TRα.
Take `CC(C)c1cc(Cn2c(C(F)(F)F)cc3c(NC(=O)C(=O)O)cccc32)ccc1O` [Example 119]: the IC50 on recombinant human TRβ came out at 15 nM; on recombinant human TRα, 57 nM.
The matching figures for `Cc1ccc(NC(=O)Cc2nnn[nH]2)c2cc(C)n(Cc3ccc(O)c(C(C)C)c3)c12` [Example 43]: 8.5 nM and 450 nM.
Regarding `Cc1ccc(NC(=O)CC(=O)O)c2cc(C)n(Cc3ccc(O)c4ccccc34)c12` [Example 115], the results for the IC50 on recombinant human TRβ and on recombinant human TRα were 130 nM and 3600 nM, respectively.
With `CCOC(=O)C(=O)Nc1ccc(C)c2c1cc(C)n2Cc1ccc(O)c(C(C)C)c1` [Example 21], the IC50 at recombinant human TRβ stood at 6.3 nM; on recombinant human TRα it was 37 nM.
`Cc1cc(NC(=O)CC(=O)O)cc2ccn(Cc3ccc(O)c(C(C)C)c3)c12` [Example 109]: the values for the IC50 at recombinant human TRβ and on recombinant human TRα were 600 nM and above 10000 nM, respectively.
For the compound `Cc1cc2c(NC(=O)CC(=O)O)cccc2n1Cc1ccc(O)c(C(C)C)c1` [Example 73], the IC50 at recombinant human TRβ amounted to 210 nM; on recombinant human TRα, 5100 nM.
For `CC(C)c1cc(Cn2c(C(F)(F)F)cc3c(NC(=O)CC(=O)O)cccc32)ccc1O` [Example 76] the same measures were 67 nM and 610 nM.
With `CCOC(=O)CC(=O)Nc1ccc(C)c2c1cc(C(F)(F)F)n2Cc1ccc(O)c(C(C)C)c1` [Example 26], the IC50 at recombinant human TRβ is 310 nM; on recombinant human TRα, 3400 nM.
For the compound `CCOC(=O)C(=O)Nc1cccc2c1cc(C)n2Cc1ccc(O)c(C(C)C)c1` [Example 8], the values for the IC50 at recombinant human TRβ and on recombinant human TRα were 72 nM and 370 nM, respectively.
For the compound `CCc1cc2c(NC(=O)C(=O)O)cccc2n1Cc1ccc(O)c(C(C)C)c1` [Example 118], the figures for the IC50 on recombinant human TRβ and at recombinant human TRα were 91 nM and 280 nM, respectively.
In the case of `CC(C)c1cc(Cn2ccc3c(NC(=O)CC(=O)O)cccc32)ccc1O` [Example 69], the values for the IC50 at recombinant human TRβ and at recombinant human TRα were 430 nM and above 10000 nM, respectively.
With `CC(C)c1cc(Cn2ccc3cc(NC(=O)C(=O)O)ccc32)ccc1O` [Example 105], the results for the IC50 on recombinant human TRβ and on recombinant human TRα were 260 nM and 970 nM, respectively.
